# Data: patent US20050090505A1, “Methods of reducing risk of infection from pathogens” (priority 2003, published 2005)
# Structures can show the parent of a compound that is named as a salt.
# What was measured:
# [1] = target: T1, airway epithelial sodium currents (sodium channel) (UniProt A0A8I3MKE6+A0A8I3Q679+Q95165); experiment: Sodium channel blocking activity: inhibition of short circuit current (ISC) in airway epithelial monolayers mounted in Ussing chambers; type: cell-based, human, dog, sheep or rodent; settings: for Fold Amiloride** (PSA 4022 = 100): relative potency for PSA 4022 = 100 using EC50 from PSA 4022 in same run; for EC50: Selected Alaphatic Pyrazinoylguanidines (Formula II), mean ± spread, read-out: EC50
# T1 sequence (A0A8I3MKE6 1-646): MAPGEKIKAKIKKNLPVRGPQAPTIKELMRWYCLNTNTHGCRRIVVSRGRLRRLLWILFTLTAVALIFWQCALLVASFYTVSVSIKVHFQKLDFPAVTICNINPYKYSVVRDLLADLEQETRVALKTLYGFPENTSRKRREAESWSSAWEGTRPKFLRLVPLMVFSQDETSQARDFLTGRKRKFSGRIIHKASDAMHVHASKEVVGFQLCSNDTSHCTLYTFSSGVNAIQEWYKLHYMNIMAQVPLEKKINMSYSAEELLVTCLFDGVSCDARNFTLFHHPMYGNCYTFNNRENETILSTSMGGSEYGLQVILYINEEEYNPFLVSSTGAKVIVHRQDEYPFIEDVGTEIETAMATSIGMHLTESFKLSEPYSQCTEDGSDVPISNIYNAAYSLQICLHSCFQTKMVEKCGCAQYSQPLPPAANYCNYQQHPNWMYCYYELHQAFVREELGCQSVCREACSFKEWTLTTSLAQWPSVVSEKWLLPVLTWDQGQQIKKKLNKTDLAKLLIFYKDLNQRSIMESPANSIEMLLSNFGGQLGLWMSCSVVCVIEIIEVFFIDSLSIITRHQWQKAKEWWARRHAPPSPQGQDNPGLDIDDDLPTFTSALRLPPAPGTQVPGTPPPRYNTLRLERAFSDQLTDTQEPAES
# T1 sequence (A0A8I3Q679 1-649): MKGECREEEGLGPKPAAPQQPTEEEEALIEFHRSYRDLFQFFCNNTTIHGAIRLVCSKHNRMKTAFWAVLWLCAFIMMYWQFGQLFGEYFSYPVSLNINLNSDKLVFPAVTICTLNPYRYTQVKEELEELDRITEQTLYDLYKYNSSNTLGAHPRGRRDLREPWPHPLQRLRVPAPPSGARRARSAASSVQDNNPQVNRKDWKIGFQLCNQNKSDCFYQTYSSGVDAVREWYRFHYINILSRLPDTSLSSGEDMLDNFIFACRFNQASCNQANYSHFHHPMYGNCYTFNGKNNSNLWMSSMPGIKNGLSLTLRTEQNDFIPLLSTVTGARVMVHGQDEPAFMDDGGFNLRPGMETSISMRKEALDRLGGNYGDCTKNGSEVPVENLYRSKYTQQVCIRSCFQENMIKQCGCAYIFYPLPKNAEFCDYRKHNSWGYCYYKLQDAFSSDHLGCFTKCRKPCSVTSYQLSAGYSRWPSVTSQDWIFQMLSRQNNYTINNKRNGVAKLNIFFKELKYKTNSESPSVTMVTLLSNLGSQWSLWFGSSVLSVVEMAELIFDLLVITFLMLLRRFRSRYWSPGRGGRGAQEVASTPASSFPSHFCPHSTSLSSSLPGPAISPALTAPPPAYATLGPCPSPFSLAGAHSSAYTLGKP
# T1 sequence (Q95165 1-641): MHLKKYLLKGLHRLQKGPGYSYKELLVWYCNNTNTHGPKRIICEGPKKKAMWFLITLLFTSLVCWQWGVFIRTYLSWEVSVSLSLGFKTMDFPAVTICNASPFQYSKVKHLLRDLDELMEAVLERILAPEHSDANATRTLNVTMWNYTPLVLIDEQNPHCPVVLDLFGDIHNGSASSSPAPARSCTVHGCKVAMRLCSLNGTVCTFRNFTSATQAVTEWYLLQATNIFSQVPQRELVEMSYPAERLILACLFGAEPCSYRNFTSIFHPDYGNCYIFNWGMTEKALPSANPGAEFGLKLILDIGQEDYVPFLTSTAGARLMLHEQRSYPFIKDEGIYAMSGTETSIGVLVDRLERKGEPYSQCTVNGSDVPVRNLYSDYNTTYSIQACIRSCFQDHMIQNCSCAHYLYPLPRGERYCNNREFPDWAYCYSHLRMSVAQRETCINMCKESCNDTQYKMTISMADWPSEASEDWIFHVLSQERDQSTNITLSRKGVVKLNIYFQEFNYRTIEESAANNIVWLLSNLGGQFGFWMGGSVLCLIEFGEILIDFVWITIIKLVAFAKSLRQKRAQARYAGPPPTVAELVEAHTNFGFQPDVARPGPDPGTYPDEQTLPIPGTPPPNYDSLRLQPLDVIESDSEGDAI
# Protocol: In Vitro Measure of Sodium Channel Blocking Activity and Reversibility
# One assay used to assess mechanism of action and/or potency of the compounds of the present invention involves the determination of lumenal drug inhibition of airway epithelial sodium currents measured under short circuit current (ISC) using airway epithelial monolayers mounted in Ussing chambers. Cells obtained from freshly excised human, dog, sheep or rodent airways are seeded onto porous 0.4 micron Snapwell™ Inserts (CoStar), cultured at air-liquid interface (ALI) conditions in hormonally defined media, and assayed for sodium transport activity (ISC) while bathed in Krebs Bicarbonate Ringer (KBR) in Using chambers. All test drug additions are to the lumenal bath with half-log dose addition protocols (from 1×10^−11 M to 3×10^−5 M), and the cumulative change in ISC (inhibition) recorded. All drugs are prepared in dimethyl sulfoxide as stock solutions at a concentration of 1×10^−2 M and stored at −20° C. Eight preparations are typically run in parallel; two preparations per run incorporate amiloride and/or benzamil as positive controls. After the maximal concentration (5×10^−5 M) is administered, the lumenal bath is exchanged three times with fresh drug-free KBR solution, and the resultant ISC measured after each wash for approximately 5 minutes in duration. Reversibility is defined as the percent return to the baseline value for sodium current after the third wash. All data from the voltage clamps are collected via a computer interface and analyzed off-line.
# Dose-effect relationships for all compounds are considered and analyzed by the Prism 3.0 program. IC50 values, maximal effective concentrations, and reversibility are calculated and compared to amiloride and benzamil as positive controls.
SMILES,melting point,Fold Amiloride** (PSA 4022 = 100) ([1]; Capped Pyrazinoylguanidines),Fold Amiloride** (PSA 4022 = 100) ([1]; Alaphatic Pyrazinoylguanidines),EC50 [1]
"N=C(N)NCCCCCCCCCCNC(=N)NC(=O)c1nc(Cl)c(N)nc1N (as salt: hydrochloride) [compound 23608, N-{10-[N′-(3,5-diamino-6-chloropyrazine-2-carbonyl)guanidino]-decyl}guanidine dihydrochloride]",156 to 158 °C,–,–,–
"N=C(NCCCCCCCCCCCCN)NC(=O)c1nc(Cl)c(N)nc1N (as salt: hydrochloride) [compound 23609, N-(12-aminododecyl)-N′-(3,5-diamino-6-chloropyrazine-2-carbonyl)-guanidine dihydrochloride]",235 to 237 °C,–,–,–
"N=C(NCCCCCCCCCCCN)NC(=O)c1nc(Cl)c(N)nc1N (as salt: hydrochloride) [compound 23682, N-(11-aminoundecyl)-N′-(3,5-diamino-6-chloropyrazine-2-carbonyl)guanidine dihydrochloride]",220 to 222 °C,–,–,–
"N=C(N)NCCCCCCCCCCCCNC(=N)NC(=O)c1nc(Cl)c(N)nc1N (as salt: hydrochloride) [compound 23683, N-{12-[N′-(3,5-diamino-6-chloropyrazine-2-carbonyl)guanidino]dodecyl)guanidine dihydrochloride]",145 to 147 °C,–,–,–
"N=C(N)NCCCCCCCCCCCNC(=N)NC(=O)c1nc(Cl)c(N)nc1N (as salt: hydrochloride) [compound 23991, N-{11-[N′-(3,5-diamino-6-chloropyrazine-2-carbonyl)guanidino]-undecyl}guanidine dihydrochloride]",151 to 153 °C,–,–,–
"N=C(NCCCCC1CCN(CCO)CC1)NC(=O)c1nc(Cl)c(N)nc1N (as salt: hydrochloride) [compound 25193, N-(3,5-diamino-6-chloropyrazine-2-carbonyl)-N′-{4-[1-(2-hydroxyethyl)piperidin-4-yl]butyl}guanidine dihydrochloride]",168 to 170 °C,–,–,–
"N=C(NCCCCc1ccc(OCC(O)COCC(O)CO)cc1)NC(=O)c1nc(Cl)c(N)nc1N (centres unmarked) [compound 15143, N-(3,5-diamino-6-chloropyrazine-2-carbonyl)-N′-(4-{4-[3-(2,3-dihydroxypropoxy)-2-hydroxypropoxy]phenyl}butyl)guanidine]",73 to 82 °C (dec.),107 ± 11,–,–
"N#CCOc1ccc(CCCCNC(=N)NC(=O)c2nc(Cl)c(N)nc2N)cc1 [compound 16208, N-[4-(4-cyanomethoxyphenyl)butyl]-N′-(3,5-diamino-6-chloro-pyrazine-2-carbonyl)guanidine]",129 to 132 °C,52 ± 21,–,–
"N=C(NCCCCc1ccc(OCC(=O)Nc2ccccc2)cc1)NC(=O)c1nc(Cl)c(N)nc1N [compound 17482, 2-(4-{4-[N′-(3,5-diamino-6-chloropyrazine-2-carbonyl)guanidino]-butyl}phenoxy)-N-phenylacetamide]",168 to 170 °C,39 ± 6,–,–
"CN(C)C(=S)Oc1ccc(CCCCNC(=N)NC(=O)c2nc(Cl)c(N)nc2N)cc1 [compound 17846, dimethylthiocarbamic acid O-(4-{4-[N′-(3,5-diamino-6-chloropyrazine-2-carbonyl)guanidino]butyl}phenyl) ester]",102 to 105 °C,104 ± 49,–,–
"Cl.N=C(NCCCCc1ccc(OCCCc2nnn[nH]2)cc1)NC(=O)c1nc(Cl)c(N)nc1N [compound 17926, N-(3,5-diamino-6-chloropyrazine-2-carbonyl)-N′-(4-{4-[3-(1H-tetrazol-5-yl)propoxy]phenyl}butyl)guanidine hydrochloride]",125 to 127 °C (dec.),29 ± 12,–,–
"N=C(NCCCCCCCN)NC(=O)c1nc(Cl)c(N)nc1N [compound 18705, N-(7-aminoheptyl)-N′-(3,5-diamino-6-chloropyrazine-2-carbonyl)guanidine]",185 to 187 °C (dec.),–,8 ± 2,0.099 ± 0.031 µM
"CC(C)[C@H](NS(=O)(=O)c1ccc(CCCCNC(=N)NC(=O)c2nc(Cl)c(N)nc2N)cc1)C(N)=O.Cl [compound 19008, (2S)-(4-{4-[N′-(3,5-diamino-6-chloropyrazine-2-carbonyl)guanidino]-butyl}benzenesulfonylamino)-3-methylbutyramide]",154 to 156 °C (dec.),54 ± 6,–,–
"CC(C)(C)OC(=O)NCCCCCCCCNC(=N)NC(=O)c1nc(Cl)c(N)nc1N [compound 19156, {8-[N′-(3,5-diamino-6-chloropyrazine-2-carbonyl)guanidino]octyl}carbamic acid tert-butyl ester]",189 to 191 °C,–,18 ± 2,0.046 ± 0.02 µM
CC(C)(C)OC(=O)NCCCOCCCNC(=N)NC(=O)c1nc(Cl)c(N)nc1N [compound 19333],62 to 65 °C (dec.),–,7 ± 2,0.081 ± 0.008 µM
"CC(C)(C)OC(=O)NCCCCCCCCCNC(=N)NC(=O)c1nc(Cl)c(N)nc1N [compound 19484, {9-[N′-(3,5-diamino-6-chloropyrazine-2-carbonyl)guanidino]nonyl}-carbamic acid tert-butyl ester]",187 to 189 °C,–,12,0.066 µM
"N=C(NCCCCc1ccc(OCCCc2ncc[nH]2)cc1)NC(=O)c1nc(Cl)c(N)nc1N [compound 23022, N-(3,5-diamino-6-chloropyrazine-2-carbonyl)-N′-(4-{4-[3-(1H-imidazol-2-yl)propoxy]phenyl}butyl)guanidine]",123 to 126 °C (dec.),79 ± 15,–,–
"CC(C)(C)OC(=O)NCCCCCCCCCCCCNC(=N)NC(=O)c1nc(Cl)c(N)nc1N [compound 23776, {12-[N′-(3,5-diamino-6-chloropyrazine-2-carbonyl)guanidino]dodecyl}-carbamic acid tert-butyl ester]",154 to 156 °C,–,7,0.075 µM
